From PubChem BioAssay AID256 (DTP/NCI, 2004)
“And” between values parts separate entries of the source, which are not always exact repeats. Identical values can stand only once. Toxic doses and inconclusive results are not listed.

Tested on: CD2F1 mice, L1210 leukemia ip, survival T/C
Experiment: NCI In Vivo Anticancer Drug Screen. Data for tumor model L1210 Leukemia (intraperitoneal) in CD2F1 (CDF1) mice
Details: higher = longer survival
Summary of the method: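 Vehicle-treated tumor-bearing mice served as controls (C) for compound-treated mice (T). Reported figure is T divided by C.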

[1] = endpoint: mean survival time, dose: 100.0 mg/kg/injection, schedule: Q01DX001 (ip), vehicle: saline with Tween-80
[2] = endpoint: mean survival time, dose: 200.0 mg/kg/injection, schedule: Q01DX001 (ip), vehicle: saline with Tween-80
[3] = endpoint: mean survival time, dose: 100.0 mg/kg/injection, schedule: Q04DX003 (ip), vehicle: saline with Tween-80
[4] = endpoint: mean survival time, dose: 200.0 mg/kg/injection, schedule: Q04DX003 (ip), vehicle: saline with Tween-80
[5] = endpoint: mean survival time, dose: 400.0 mg/kg/injection, schedule: Q04DX003 (ip), vehicle: saline with Tween-80
[6] = endpoint: mean survival time, dose: 100.0 mg/kg/injection, schedule: Q01DX009 (ip), vehicle: saline with Tween-80
[7] = endpoint: mean survival time, dose: 200.0 mg/kg/injection, schedule: Q01DX009 (ip), vehicle: saline with Tween-80
[8] = endpoint: mean survival time, dose: 400.0 mg/kg/injection, schedule: Q01DX009 (ip), vehicle: saline with Tween-80

SMILES: COC(=O)c1ncn(C2OC(COC(C)=O)C(OC(C)=O)C2OC(C)=O)c1C(=O)OC (stereo not given)
- T/C (endpoint: mean survival time, dose: 12.5 mg/kg/injection, schedule: Q01DX005 (ip), vehicle: water): 87 % of control
- T/C (endpoint: mean survival time, dose: 25.0 mg/kg/injection, schedule: Q01DX005 (ip), vehicle: water): 94 % of control
- T/C (endpoint: mean survival time, dose: 50.0 mg/kg/injection, schedule: Q01DX005 (ip), vehicle: water): 90 % of control
- T/C (endpoint: mean survival time, dose: 100.0 mg/kg/injection, schedule: Q01DX005 (ip), vehicle: water): 100 % of control
- T/C (endpoint: mean survival time, dose: 200.0 mg/kg/injection, schedule: Q01DX005 (ip), vehicle: water): 96 % of control

SMILES: Nc1nc(N)c2nc(CN(CCO)c3ccc(C(=O)NC(CCC(=O)O)C(=O)O)cc3)cnc2n1 (stereo not given)
- T/C (endpoint: mean survival time, dose: 2.0 mg/kg/injection, schedule: Q01DX009 (ip), vehicle: Klucel (hydroxypropylcellulose) (HPC)): 162 % of control
- T/C (endpoint: mean survival time, dose: 4.0 mg/kg/injection, schedule: Q01DX009 (ip), vehicle: Klucel (hydroxypropylcellulose) (HPC)): 190 % of control
- T/C (endpoint: mean survival time, dose: 8.0 mg/kg/injection, schedule: Q01DX009 (ip), vehicle: Klucel (hydroxypropylcellulose) (HPC)): 171 % of control

SMILES: Cc1ccc(S(=O)(=O)OCCc2ccccc2)cc1
- T/C [1]: 97 % of control
- T/C [2]: 97 % of control
- T/C (endpoint: mean survival time, dose: 400.0 mg/kg/injection, schedule: Q01DX001 (ip), vehicle: saline with Tween-80): 94 % of control

SMILES: Cc1ccc(C2(c3ccccc3)c3ccccc3C(=O)N2c2ccccc2)cc1 (stereo not given)
- T/C [3]: 97 % of control
- T/C [4]: 101 % of control
- T/C [5]: 103 % of control

SMILES: CN(C)CCNC1=C(Cl)C(=O)c2ccccc2C1=O
- T/C (endpoint: mean survival time, dose: 6.25 mg/kg/injection, schedule: Q04DX003 (ip), vehicle: saline with Tween-80): 97 % of control
- T/C (endpoint: mean survival time, dose: 12.5 mg/kg/injection, schedule: Q04DX003 (ip), vehicle: saline with Tween-80): 101 % of control
- T/C (endpoint: mean survival time, dose: 25.0 mg/kg/injection, schedule: Q04DX003 (ip), vehicle: saline with Tween-80): 91 % of control and 102 % of control

SMILES: CNC(=O)/C=C/C1=CN2C(=O)c3ccc(C)c(O)c3NC(OC)C2C1 (stereo not given)
- T/C (endpoint: mean survival time, dose: 0.01 mg/kg/injection, schedule: Q01DX009 (ip), vehicle: saline): 105 % of control and 108 % of control
- T/C (endpoint: mean survival time, dose: 0.02 mg/kg/injection, schedule: Q01DX009 (ip), vehicle: saline): 95 % of control
- T/C (endpoint: mean survival time, dose: 0.03 mg/kg/injection, schedule: Q01DX009 (ip), vehicle: saline): 112 % of control
- T/C (endpoint: mean survival time, dose: 0.05 mg/kg/injection, schedule: Q01DX009 (ip), vehicle: saline): 100 % of control and 106 % of control and 108 % of control
- T/C (endpoint: mean survival time, dose: 0.1 mg/kg/injection, schedule: Q01DX009 (ip), vehicle: saline): 115 % of control and 102 % of control and 106 % of control
- T/C (endpoint: mean survival time, dose: 0.2 mg/kg/injection, schedule: Q01DX009 (ip), vehicle: saline): 115 % of control and 100 % of control
- T/C (endpoint: mean survival time, dose: 0.4 mg/kg/injection, schedule: Q01DX009 (ip), vehicle: saline): 112 % of control

SMILES: O=C(OCC1OC(n2cnc3c(=S)nc[nH]c32)C(OC(=O)c2ccc([N+](=O)[O-])cc2)C1OC(=O)c1ccc([N+](=O)[O-])cc1)c1ccc([N+](=O)[O-])cc1 (stereo not given)
- T/C (endpoint: mean survival time, dose: 132.0 mg/kg/injection, schedule: Q01DX009 (ip), vehicle: saline with Tween-80): 157 % of control

SMILES: O=C1c2ccccc2C(=O)c2c(NC3CCCCC3)ccc(Nc3ccc(S(=O)(=O)O)cc3)c21
- T/C (endpoint: mean survival time, dose: 75.0 mg/kg/injection, schedule: Q01DX001 (ip), vehicle: saline): 100 % of control
- T/C (endpoint: mean survival time, dose: 150.0 mg/kg/injection, schedule: Q01DX001 (ip), vehicle: saline): 100 % of control
- T/C (endpoint: mean survival time, dose: 300.0 mg/kg/injection, schedule: Q01DX001 (ip), vehicle: saline): 103 % of control

SMILES: COc1ccccc1N=Nc1c(O)n(-c2ccccc2OC)c(=S)n(-c2ccc(Cl)cc2)c1=O
- T/C [1]: 90 % of control
- T/C [2]: 93 % of control

SMILES: O=C1NCC1c1ccccc1 (stereo not given)
- T/C (endpoint: median survival time, dose: 25.0 mg/kg/injection, schedule: Q04DX003 (ip), vehicle: saline with Tween-80): 90 % of control
- T/C (endpoint: median survival time, dose: 50.0 mg/kg/injection, schedule: Q04DX003 (ip), vehicle: saline with Tween-80): 90 % of control
- T/C (endpoint: median survival time, dose: 100.0 mg/kg/injection, schedule: Q04DX003 (ip), vehicle: saline with Tween-80): 100 % of control
- T/C (endpoint: median survival time, dose: 200.0 mg/kg/injection, schedule: Q04DX003 (ip), vehicle: saline with Tween-80): 90 % of control

SMILES: C1=CC23CC(c4ccccc42)C2c4ccccc4C23C=C1 (stereo not given)
- T/C [6]: 101 % of control
- T/C [3]: 93 % of control
- T/C [7]: 101 % of control
- T/C [4]: 95 % of control
- T/C [8]: 95 % of control
- T/C [5]: 93 % of control

SMILES: NC(=O)C#CC(N)=O
- T/C (endpoint: mean survival time, dose: 0.37 mg/kg/injection, schedule: Q01DX009 (ip), vehicle: saline): 101 % of control
- T/C (endpoint: mean survival time, dose: 0.75 mg/kg/injection, schedule: Q01DX009 (ip), vehicle: saline): 103 % of control
- T/C (endpoint: mean survival time, dose: 1.5 mg/kg/injection, schedule: Q01DX009 (ip), vehicle: saline): 109 % of control
- T/C (endpoint: mean survival time, dose: 3.0 mg/kg/injection, schedule: Q01DX009 (ip), vehicle: saline): 122 % of control
- T/C [6]: 95 % of control
- T/C [3]: 108 % of control
- T/C [7]: 98 % of control
- T/C [4]: 92 % of control
- T/C [8]: 108 % of control
- T/C [5]: 89 % of control

SMILES: COc1nn(O)cc(C)c1=N
- T/C (endpoint: mean survival time, dose: 6.25 mg/kg/injection, schedule: Q04DX002 (ip), vehicle: saline with Tween-80): 93 % of control
- T/C (endpoint: mean survival time, dose: 12.5 mg/kg/injection, schedule: Q04DX002 (ip), vehicle: saline with Tween-80): 101 % of control
- T/C (endpoint: mean survival time, dose: 25.0 mg/kg/injection, schedule: Q04DX002 (ip), vehicle: saline with Tween-80): 101 % of control

SMILES: O=C(O)CCC(=O)NO
- T/C (endpoint: mean survival time, dose: 100.0 mg/kg/injection, schedule: Q04DX003 (ip), vehicle: saline): 109 % of control
- T/C (endpoint: mean survival time, dose: 200.0 mg/kg/injection, schedule: Q04DX003 (ip), vehicle: saline): 109 % of control
- T/C (endpoint: mean survival time, dose: 400.0 mg/kg/injection, schedule: Q04DX003 (ip), vehicle: saline): 109 % of control

SMILES: CN(Cc1cnc2nc(N)nc(N)c2n1)c1ccc(C(=O)NC(CCP(=O)(O)O)P(=O)(O)O)cc1 (stereo not given)
- T/C (endpoint: median survival time, dose: 0.38 mg/kg/injection, schedule: Q01DX009 (ip), vehicle: saline): 101 % of control
- T/C (endpoint: median survival time, dose: 0.75 mg/kg/injection, schedule: Q01DX009 (ip), vehicle: saline): 101 % of control
- T/C (endpoint: median survival time, dose: 1.5 mg/kg/injection, schedule: Q01DX009 (ip), vehicle: saline): 98 % of control
- T/C (endpoint: median survival time, dose: 3.0 mg/kg/injection, schedule: Q01DX009 (ip), vehicle: saline): 102 % of control
- T/C (endpoint: median survival time, dose: 6.0 mg/kg/injection, schedule: Q01DX009 (ip), vehicle: saline): 102 % of control
- T/C (endpoint: median survival time, dose: 12.0 mg/kg/injection, schedule: Q01DX009 (ip), vehicle: saline): 101 % of control

SMILES: O=C(CC(SCCN1CCOCC1)c1ccccc1)c1ccc([N+](=O)[O-])cc1 (stereo not given)
- T/C (endpoint: mean survival time, dose: 100.0 mg/kg/injection, schedule: Q01DX001 (ip), vehicle: Klucel (hydroxypropylcellulose) (HPC)): 93 % of control
- T/C (endpoint: mean survival time, dose: 200.0 mg/kg/injection, schedule: Q01DX001 (ip), vehicle: Klucel (hydroxypropylcellulose) (HPC)): 93 % of control

SMILES: COc1ccc(C2CCc3cc4c(cc3C2=O)OCO4)cc1OC (stereo not given)
- T/C [3]: 98 % of control
- T/C [4]: 96 % of control
- T/C [5]: 91 % of control

SMILES: Nc1nc(N)c2nc(CSc3ccc(C(=O)NC(CCC(=O)O)C(=O)O)cc3)cnc2n1 (stereo not given)
- T/C (endpoint: mean survival time, dose: 1.5 mg/kg/injection, schedule: Q01DX009 (ip), vehicle: distilled water + Tween-80): 96 % of control
- T/C (endpoint: mean survival time, dose: 3.0 mg/kg/injection, schedule: Q01DX009 (ip), vehicle: distilled water + Tween-80): 86 % of control
- T/C (endpoint: mean survival time, dose: 6.0 mg/kg/injection, schedule: Q01DX009 (ip), vehicle: distilled water + Tween-80): 100 % of control and 101 % of control
- T/C (endpoint: mean survival time, dose: 12.0 mg/kg/injection, schedule: Q01DX009 (ip), vehicle: distilled water + Tween-80): 115 % of control and 110 % of control
- T/C (endpoint: mean survival time, dose: 24.0 mg/kg/injection, schedule: Q01DX009 (ip), vehicle: distilled water + Tween-80): 117 % of control and 120 % of control

SMILES: CC(=O)Nc1nc(C)c(CC/C=C/c2ccc([N+](=O)[O-])cc2)c(=O)[nH]1
- T/C [3]: 94 % of control
- T/C [4]: 97 % of control
- T/C [5]: 90 % of control

SMILES: Cc1c(Cl)c(C)c(Cl)c(C)c1Cl
- T/C [3]: 101 % of control
- T/C [4]: 96 % of control
- T/C [5]: 101 % of control

SMILES: Nc1n[nH]c(=S)s1
- T/C (endpoint: mean survival time, dose: 100.0 mg/kg/injection, schedule: Q04DX002 (ip), vehicle: saline with Tween-80): 107 % of control
- T/C (endpoint: mean survival time, dose: 200.0 mg/kg/injection, schedule: Q04DX002 (ip), vehicle: saline with Tween-80): 96 % of control

SMILES: CCCC1(CCC)c2ccccc2C(Cl)(CCl)c2ccccc21
- T/C (endpoint: mean survival time, dose: 12.5 mg/kg/injection, schedule: Q01DX009 (ip), vehicle: other): 88 % of control
- T/C (endpoint: mean survival time, dose: 25.0 mg/kg/injection, schedule: Q01DX009 (ip), vehicle: other): 94 % of control
- T/C (endpoint: mean survival time, dose: 50.0 mg/kg/injection, schedule: Q01DX009 (ip), vehicle: other): 92 % of control
- T/C (endpoint: mean survival time, dose: 100.0 mg/kg/injection, schedule: Q01DX009 (ip), vehicle: other): 94 % of control
- T/C (endpoint: mean survival time, dose: 200.0 mg/kg/injection, schedule: Q01DX009 (ip), vehicle: other): 86 % of control
